Several values for one entry are separate records, joined by “and”; a condition that tells them apart may be missing. Identical values can stand only once.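 Method: 48-hour compound exposure of cells in 96-well plates, five concentrations, linear interpolation of endpoints. Abbreviation: GI50, concentration required for 50% inhibition of growth. TGI denotes the concentration required for complete inhibition of growth.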
Experiments:
Test in all cases: DTP human tumour cell line panel, 48 h
[1] = system: ACHN renal
[2] = system: BT-549 breast
[3] = system: CCRF-CEM leukemia
[4] = system: HS 578T breast
[5] = system: MDA-MB-435
[6] = system: NCI-H460 lung
[7] = system: OVCAR-3 ovarian
[8] = system: SK-MEL-28 melanoma
[9] = system: UACC-257 melanoma
[10] = system: UACC-62 melanoma

SMILES	GI50 [1]	TGI [1]	GI50 [2]	TGI [2]	GI50 [3]	TGI [3]	GI50 [4]	TGI [4]	GI50 [5]	TGI [5]	GI50 [6]	TGI [6]	GI50 [7]	TGI [7]	GI50 [8]	TGI [8]	GI50 [9]	TGI [9]	GI50 [10]	TGI [10]
CCN(CC)CCC(CNc1c2ccc([N+](=O)[O-])cc2nc2cc(OC)c(OC)cc12)c1ccccc1 (stereo not given)	0.553 µM and 0.518 µM	2.07 µM and 2.06 µM	1.49 µM and 0.74 µM	3.78 µM and 2 µM	1.19 µM and 1.7 µM	7.29 µM and 10.1 µM	0.528 µM and 0.272 µM	2.88 µM and 1.2 µM	161 nM and 148 nM	0.311 µM and 0.319 µM	0.118 µM and 0.0525 µM	1.05 µM and 0.631 µM	0.269 µM and 0.0927 µM	1.01 µM and 0.335 µM	347 nM and 278 nM	1.23 µM and 0.831 µM	410 nM and 365 nM	1.43 µM and 1.3 µM	542 nM and 696 nM	1.91 µM and 2.01 µM
S=C(Nc1ccc(-c2nc3ccccc3s2)cc1)Nc1ccccn1	26.3 µM	> 70.8 µM	14.9 µM	> 100 µM	25.5 µM	> 100 µM	21.5 µM	59.2 µM	28400 nM	97.2 µM	41.2 µM	> 100 µM	18.7 µM	> 53.9 µM	35300 nM	> 95.4 µM	31800 nM	> 72 µM	21400 nM	57.3 µM
CCN1CCN(CCNc2nccc(-c3c(-c4cccc(O)c4)nc4sccn34)n2)S1(=O)=O	6.72 µM and 4.13 µM	32 µM and > 100 µM	20.4 µM and 6.31 µM	32.5 µM and 76.6 µM	8.83 µM and 5.52 µM	32.5 µM and 46.1 µM	12.9 µM and 10 µM	30.2 µM and > 100 µM	313 nM and 376 nM	14.5 µM and 5.79 µM	11.8 µM and 5.86 µM	32.5 µM and 78.3 µM	20.1 µM and 21.4 µM	32.5 µM and > 100 µM	181 nM and 130 nM	32.5 µM and > 100 µM	310 nM and 215 nM	32.5 µM and 9.03 µM	105 nM and 76.6 nM	6.11 µM and 4.62 µM
Clc1cccc(Cn2cc(Cc3cn(Cc4cccc(Cl)c4)c4ccccc34)c3ccccc32)c1	> 100 µM	> 100 µM	> 100 µM	> 100 µM	> 100 µM	> 100 µM	> 100 µM	> 100 µM	> 100000 nM	> 100 µM	46.5 µM	> 100 µM	> 100 µM	> 100 µM	> 100000 nM	> 100 µM	> 100000 nM	> 100 µM	> 100000 nM	> 100 µM
NC(Cc1cc(Br)c(O)c(Br)c1)C(=O)O (stereo not given)		> 100 µM		> 100 µM		> 100 µM		> 100 µM		> 100 µM		> 100 µM		> 100 µM		> 100 µM		> 100 µM		> 100 µM
CNC(=O)c1cc(Oc2ccc3nc(NC(=O)c4cc(C(F)(F)F)cc(C(F)(F)F)c4)sc3c2)ccn1	3.26 µM	11.8 µM	3.05 µM	12.4 µM	3.47 µM	> 100 µM	3.15 µM	13.3 µM	3280 nM	20.4 µM	3.83 µM	14.6 µM	2.32 µM	6.64 µM	3760 nM	43.7 µM	2890 nM	8.12 µM	2710 nM	12.1 µM
